Paper PMC6021032, “Antimycobacterial activity of nitrogen heterocycles derivatives: 7-(pyridine-4-yl)-indolizine derivatives. Part VII^8–12” (Journal of Enzyme Inhibition and Medicinal Chemistry, 2017)

Experiments:
[1] = tested on: Mycobacterium tuberculosis H37Rv; assay: Primary screen (Cycle 1): MIC, IC50, IC90 under aerobic conditions; assay type: cell-based
M. tuberculosis H37Rv = assay: Cycle 2 repeat of MIC, IC50, IC90 under aerobic conditions (lower starting concentrations); assay type: cell-based, Mycobacterium tuberculosis; conditions: revaluation
Mtb H37Rv = assay: LORA parallel plates, oxygen-deprived bacteria incubated under aerobic conditions (normal oxygen); assay type: cell-based, Mycobacterium tuberculosis
Mycobacterium avium = assay: MIC against nontuberculous mycobacteria (Alamar blue); assay type: cell-based; conditions: M. avium
Mycobacterium abscessus = assay: MIC, IC50, IC90 against nontuberculous mycobacteria (OD590); assay type: cell-based; conditions: M. abscessus
[2] = tested on: THP-1 cell line infected with Mtb; assay: Intracellular activity assay, luminescence; assay type: cell-based, Mycobacterium tuberculosis; conditions: Mtb-infected THP-1 cells, 72 h
Experimental: Since the overall efficacy of any anti TB drug will be improved by its ability to traffic into the macrophage phagosome containing replicating bacteria, we evaluated the intracellular activity of compounds[24]. This was measured by using THP-1 cell line infected with Mtb. Infected cells were exposed to compounds for 72 h and viable bacterial counts were measured using luminescence as a measure of intracellular growth.
Assay (Promega) which uses ATP as an indicator of cell viability. Relative luminescent units (RLU) were measured using a Biotek Synergy 4 plate reader. The dose response curve was fitted using the Levenberg–Marquardt algorithm. The IC50 was defined as the compound […]
Intracellular Activity Assay
The activity of compounds against intracellular bacteria was determined by measuring viability in infected THP-1 cell after 3 days in the presence of test compounds. Compounds were prepared as 10-point three-fold serial dilutions in DMSO. The highest concentration of […]
THP-1 cells were cultured in complete RPMI and differentiated into macrophage-like cells using 80 nM PMA overnight at 37°C, 5% CO2. THP-1 cells were infected with a luminescent strain of H37Rv (which constitutively expresses luxABCDE) at a multiplicity of infection of 1 and incubated overnight at 37°C, 5% CO2. Infected cells were recovered using Accutase/EDTA solution, washed twice with PBS to remove extracellular bacteria and seeded into assay pates. Compound dilutions were added to a final DMSO concentration of 0.5%.
Assay plates were incubated for 72 h at 37°C, 5% CO2. Each run included isoniazid as a control. Relative luminescent units (RLU) were measured using a Biotek Synergy 2 plate reader. The dose response curve was fitted using the Levenberg–Marquardt algorithm. The […]
inhibition of growth respectively.
3. Cycle 3 – Absorption, distribution, metabolism, excretion and toxicity (ADMET)
3.1. Plasma Protein Binding Assay
Compounds were added to human plasma at a fixed concentration of 5 µM. The mixture was dialyzed in a RED device (Rapid Equilibrium Dialysis, Pierce) against PBS and incubated on an orbital shaker for 4 h at 37 °C. Aliquots from plasma and PBS sides were collected; an equal volume of PBS was added to the plasma sample, and an equal volume of plasma was added to the PBS sample. Three volumes of methanol (containing the internal binding standard propranolol) was added to precipitate the proteins and release the compound.
Each compound was tested in duplicate. Samples were centrifuged, the supernatant was […]

[3] = tested on: THP-1 human monocytic cell line; assay: Cytotoxicity, THP-1 cell viability (CellTiter-Glo); conditions: read-out: Cytotoxicity IC50; THP-1 cells, 50% loss in viability, 3 days
in vitro = conditions: human
[4] = M. tuberculosis H37Rv, aerobic conditions, primary screen

Row | Compound | IC50 [1, 4] | IC90 [1, 4] | MIC [1, 4] | MIC ([1]; MIC value taken from the first MIC assay) | IC50 (M. tuberculosis H37Rv; aerobic) | IC90 (M. tuberculosis H37Rv; aerobic) | MIC (M. tuberculosis H37Rv; repeated at lower starting concentrations, read-out: MIC aerobic condition) | IC50 (Mtb H37Rv) | IC90 (Mtb H37Rv) | MIC (Mtb H37Rv; oxygen-deprived bacteria, aerobic 5 d) | MIC (Mycobacterium avium) | IC50 (Mycobacterium abscessus) | IC90 (Mycobacterium abscessus) | IC50 ([2]; read-out: IC50 intracell) | IC90 ([2]; read-out: IC90 intracell) | IC50 [3] | recovery at 4 h, 5 µM (in vitro)
1 | 4-[3-(4-Chlorophenyl)-1-(ethoxycarbonyl)indolizine-7-yl)-1-(2-(4-methoxyphenyl)-2-oxoethyl)pyridine-1-ium bromide [Compound 6c] | 12 µM | 14 µM | 15 µM | 15 µM | 6.7 µM | 9.5 µM | 9.5 µM | 8.1 µM | 23 µM | 75 µM | 50 µM | 16 µM | 21 µM | 7 µM | 34 µM | 4.1 µM | 
2 | CC(=O)CC(c1ccccc1)c1c(O)c2ccccc2oc1=O (centres unmarked) [Warfarin] |  |  |  |  |  |  |  |  |  |  |  |  |  |  |  |  | 96.7%
